Measurements from ChEMBL document CHEMBL4304804, “Synthesis and biological evaluation of calycanthaceous alkaloid analogs” (Bioorg Med Chem, 2019).
Values after ≈ are worked out from the molar mass of the structure shown. Active and inactive are the calls of the source. No cut-off for these calls is given here.

How the values were obtained:
Verticillium dahliae = experiment: Antifungal activity against Verticillium dahliae assessed as reduction in fungal cell growth incubated for 48 hrs by serial dilution method; format: functional
[1] = system: Fusarium oxysporum f. sp. vasinfectum; experiment: Antifungal activity against Fusarium oxysporum sp. vasinfectum assessed as reduction in fungal cell growth incubated for 48 hrs by serial dilution method; format: functional
Cytospora = experiment: Antifungal activity against Cytospora juglandis assessed as reduction in fungal cell growth incubated for 48 hrs by serial dilution method; format: functional
Aspergillus flavus = experiment: Antifungal activity against Aspergillus flavus assessed as reduction in fungal cell growth incubated for 48 hrs by serial dilution method; format: functional
Penicillium citrinum = experiment: Antifungal activity against Penicillium citrinum assessed as reduction in fungal cell growth incubated for 48 hrs by serial dilution method; format: functional
Fusarium oxysporum = experiment: Antifungal activity against Fusarium oxysporum assessed as reduction in fungal cell growth incubated for 48 hrs by serial dilution method; format: functional
[2] = system: Colletotrichum orbiculare; experiment: Antifungal activity against Colletotrichum orbiculare assessed as reduction in fungal cell growth incubated for 48 hrs by serial dilution method; format: functional
Aspergillus niger = experiment: Antifungal activity against Aspergillus niger assessed as reduction in fungal cell growth incubated for 48 hrs by serial dilution method; format: functional
Curvularia lunata = experiment: Antifungal activity against Curvularia lunata assessed as reduction in fungal cell growth incubated for 48 hrs by serial dilution method; format: functional
Escherichia coli = experiment: Antibacterial activity against Escherichia coli assessed as reduction in bacterial cell growth incubated for 24 hrs by filter paper assay; format: functional
Pseudomonas aeruginosa = experiment: Antibacterial activity against Pseudomonas aeruginosa assessed as reduction in bacterial cell growth incubated for 24 hrs by filter paper assay; format: functional
Ralstonia solanacearum = experiment: Antibacterial activity against Ralstonia solanacearum assessed as reduction in bacterial cell growth incubated for 24 hrs by filter paper assay; format: functional
Bacillus cereus = experiment: Antibacterial activity against Bacillus cereus assessed as reduction in bacterial cell growth incubated for 24 hrs by filter paper assay; format: functional
Staphylococcus aureus = experiment: Antibacterial activity against Staphylococcus aureus assessed as reduction in bacterial cell growth incubated for 24 hrs by filter paper assay; format: functional
Candida = experiment: Antifungal activity against […] assessed as reduction in fungal cell growth incubated for 48 hrs by serial dilution method; format: functional
Cryptococcus neoformans = experiment: Antifungal activity against Cryptococcus neoformans assessed as reduction in fungal cell growth incubated for 48 hrs by serial dilution method; format: functional
Candida tropicalis = experiment: Antifungal activity against Candida tropicalis assessed as reduction in fungal cell growth incubated for 48 hrs by serial dilution method; format: functional
Acetylcholinesterase = Acetylcholinesterase (Electrophorus electricus, UniProt O42275); experiment: Inhibition of electric eel AChE by Ellman's colorimetry
Sequence of Acetylcholinesterase (O42275 whole entry): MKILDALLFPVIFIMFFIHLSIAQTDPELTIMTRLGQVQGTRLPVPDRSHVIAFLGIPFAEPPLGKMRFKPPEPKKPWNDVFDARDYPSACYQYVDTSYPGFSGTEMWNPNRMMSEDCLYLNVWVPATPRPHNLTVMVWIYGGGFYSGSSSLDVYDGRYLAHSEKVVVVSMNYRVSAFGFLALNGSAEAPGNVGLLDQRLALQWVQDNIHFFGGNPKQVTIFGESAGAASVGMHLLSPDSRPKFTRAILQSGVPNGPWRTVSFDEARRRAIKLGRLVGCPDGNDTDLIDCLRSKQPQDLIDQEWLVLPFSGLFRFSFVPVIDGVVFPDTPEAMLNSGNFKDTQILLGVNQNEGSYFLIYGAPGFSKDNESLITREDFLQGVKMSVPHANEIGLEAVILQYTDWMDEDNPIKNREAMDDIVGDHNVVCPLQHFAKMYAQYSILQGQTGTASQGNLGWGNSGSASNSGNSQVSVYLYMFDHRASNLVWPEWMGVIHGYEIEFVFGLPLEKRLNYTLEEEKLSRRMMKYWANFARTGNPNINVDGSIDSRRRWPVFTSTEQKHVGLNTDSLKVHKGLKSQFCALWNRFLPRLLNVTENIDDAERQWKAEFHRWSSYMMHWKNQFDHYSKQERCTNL

Row | Compound | MIC (Verticillium dahliae) | MIC [1] | MIC (Cytospora) | MIC (Aspergillus flavus) | MIC (Penicillium citrinum) | MIC (Fusarium oxysporum) | MIC [2] | MIC (Aspergillus niger) | MIC (Curvularia lunata) | MIC (Escherichia coli) | MIC (Pseudomonas aeruginosa) | MIC (Ralstonia solanacearum) | MIC (Bacillus cereus) | MIC (Staphylococcus aureus) | MIC (Candida) | MIC (Cryptococcus neoformans) | MIC (Candida tropicalis) | IC50 (Acetylcholinesterase)
1 | Cc1cccc(CN2c3ccccc3C3(Cc4cccc(C)c4)CCN(C(=O)c4ccccc4C)C23)c1 (centres undefined) | 7.81 µg/mL (≈ 16 µM) | 125 µg/mL (≈ 257 µM) | 125 µg/mL (≈ 257 µM) | 250 µg/mL (≈ 514 µM) | inactive | 125 µg/mL (≈ 257 µM) | 250 µg/mL (≈ 514 µM) | 250 µg/mL (≈ 514 µM) | 62.5 µg/mL (≈ 128 µM) | inactive | inactive | 125 µg/mL (≈ 257 µM) | 125 µg/mL (≈ 257 µM) | inactive | 250 µg/mL (≈ 514 µM) | inactive | 250 µg/mL (≈ 514 µM) | 112 µM
2 | COc1ccc(C(=O)N2CCC3(Cc4cccc(C)c4)c4ccccc4N(Cc4cccc(C)c4)C23)cc1 (centres undefined) | 125 µg/mL (≈ 249 µM) | inactive | 250 µg/mL (≈ 497 µM) | 250 µg/mL (≈ 497 µM) | 250 µg/mL (≈ 497 µM) | 250 µg/mL (≈ 497 µM) | inactive | 250 µg/mL (≈ 497 µM) | inactive | inactive | inactive | inactive | inactive | inactive | inactive | inactive | inactive | 2.81 µM
3 | Cc1cccc(CN2c3ccccc3C3(Cc4cccc(C)c4)CCN(C(=O)C(C)C)C23)c1 (centres undefined) | 250 µg/mL (≈ 570 µM) | inactive | 250 µg/mL (≈ 570 µM) | 250 µg/mL (≈ 570 µM) | inactive | 125 µg/mL (≈ 285 µM) | 250 µg/mL (≈ 570 µM) | 250 µg/mL (≈ 570 µM) | inactive | 250 µg/mL (≈ 570 µM) | inactive | inactive | 15.6 µg/mL (≈ 35.6 µM) | inactive | 250 µg/mL (≈ 570 µM) | inactive | 250 µg/mL (≈ 570 µM) | 13.6 µM
4 | Cc1cccc(CN2c3ccccc3C3(Cc4cccc(C)c4)CCN(C(=O)Cc4ccccc4)C23)c1 (centres undefined) | 250 µg/mL (≈ 514 µM) | 125 µg/mL (≈ 257 µM) | 250 µg/mL (≈ 514 µM) | 250 µg/mL (≈ 514 µM) | 250 µg/mL (≈ 514 µM) | 250 µg/mL (≈ 514 µM) | inactive | 250 µg/mL (≈ 514 µM) | inactive | inactive | inactive | inactive | inactive | inactive | inactive | inactive | inactive | 453 µM
5 | OC(Cn1cncn1)(Cn1cncn1)c1ccc(F)cc1F [FLUCONAZOLE] | – | – | – | – | – | – | – | – | – | – | – | – | – | – | 62.5 µg/mL (≈ 204 µM) | – | 250 µg/mL (≈ 816 µM) | –
6 | CCCCC(=O)N1CCC2(Cc3ccccc3C)c3ccccc3N(Cc3ccccc3C)C12 (centres undefined) | 31.2 µg/mL (≈ 69 µM) | inactive | 250 µg/mL (≈ 552 µM) | 250 µg/mL (≈ 552 µM) | 250 µg/mL (≈ 552 µM) | 125 µg/mL (≈ 276 µM) | inactive | 250 µg/mL (≈ 552 µM) | inactive | 250 µg/mL (≈ 552 µM) | 250 µg/mL (≈ 552 µM) | 250 µg/mL (≈ 552 µM) | 250 µg/mL (≈ 552 µM) | 250 µg/mL (≈ 552 µM) | 250 µg/mL (≈ 552 µM) | inactive | 125 µg/mL (≈ 276 µM) | 328 µM
7 | GENTAMICIN | – | – | – | – | – | – | – | – | – | 1.96 µg/mL | 1.96 µg/mL | 62.5 µg/mL | – | – | – | – | – | –
8 | CCCCCCC(=O)N1CCC2(Cc3cccc(C)c3)c3ccccc3N(Cc3cccc(C)c3)C12 (centres undefined) | 125 µg/mL (≈ 260 µM) | 250 µg/mL (≈ 520 µM) | 62.5 µg/mL (≈ 130 µM) | 250 µg/mL (≈ 520 µM) | 250 µg/mL (≈ 520 µM) | 125 µg/mL (≈ 260 µM) | 250 µg/mL (≈ 520 µM) | 250 µg/mL (≈ 520 µM) | 62.5 µg/mL (≈ 130 µM) | 250 µg/mL (≈ 520 µM) | 125 µg/mL (≈ 260 µM) | 125 µg/mL (≈ 260 µM) | 125 µg/mL (≈ 260 µM) | 250 µg/mL (≈ 520 µM) | 250 µg/mL (≈ 520 µM) | inactive | 250 µg/mL (≈ 520 µM) | 18.2 µM
9 | CCCC(=O)N1CCC2(Cc3cccc(C)c3)c3ccccc3N(Cc3cccc(C)c3)C12 (centres undefined) | 62.5 µg/mL (≈ 142 µM) | inactive | 62.5 µg/mL (≈ 142 µM) | 250 µg/mL (≈ 570 µM) | inactive | 125 µg/mL (≈ 285 µM) | 250 µg/mL (≈ 570 µM) | 125 µg/mL (≈ 285 µM) | inactive | 250 µg/mL (≈ 570 µM) | 250 µg/mL (≈ 570 µM) | 250 µg/mL (≈ 570 µM) | 250 µg/mL (≈ 570 µM) | 250 µg/mL (≈ 570 µM) | 250 µg/mL (≈ 570 µM) | inactive | 125 µg/mL (≈ 285 µM) | 6.52 µM
10 | CCCCC(=O)N1CCC2(Cc3cccc(C)c3)c3ccccc3N(Cc3cccc(C)c3)C12 (centres undefined) | 31.2 µg/mL (≈ 69 µM) | inactive | 250 µg/mL (≈ 552 µM) | 250 µg/mL (≈ 552 µM) | 250 µg/mL (≈ 552 µM) | 125 µg/mL (≈ 276 µM) | inactive | 250 µg/mL (≈ 552 µM) | inactive | 250 µg/mL (≈ 552 µM) | 125 µg/mL (≈ 276 µM) | 250 µg/mL (≈ 552 µM) | 250 µg/mL (≈ 552 µM) | 250 µg/mL (≈ 552 µM) | 250 µg/mL (≈ 552 µM) | inactive | 250 µg/mL (≈ 552 µM) | 0.133 µM
